Experimental data: patent US4751302A, “Indazole derivatives” (priority 1982, dated 1988)

What was measured:
in vivo = details: mouse, ip, intraperitoneal, hydrochloride, male ddy mice
[1] = system: Carrageenin edema in rat's paw; assay: Carrageenin Edema Test in Rat's Paw (anti-inflammatory activity, Table 1); assay type: in vivo; details: 100 mg/kg oral, hydrochloride, rat
Method: An anti-inflammatory activity was measured by orally administering 100 mg/kg of a hydrochloride of the indazole derivative of this invention as set forth in Table 1 to an animal in accordance with the standard method of Carrageenin Edema Test in Rat's Paw described in C. A. Winter et al., Proc. Soc. Exp. Biol. Med., 111, 544 (1962).

Row | SMILES | LD50 (in vivo) [mg/kg] | inhibition in vivo at 100 mg/kg [1] [%]
1 | CCN(CC)CCCn1nc(NCCCN2CCCCC2)c2cc(Cl)ccc21 [(96), 1-(3-Diethylaminopropyl)-3-(3-piperidinopropylamino)-5-chloroindazole] | 243 | 29
2 | CCN(CC)CCCn1nc(NCCCCCCN2CCCCC2)c2cc(Cl)ccc21 [(97), 1-(3-Diethylaminopropyl)-3-(6-piperidinohexylamino)-5-chloroindazole] | 229 | 22
3 | CCCCN(CCCC)CCCNc1nn(CCCN(CC)CC)c2ccc(Cl)cc12 [(98), 1-(3-Diethylaminopropyl)-3-(3-di-n-butylaminopropylamino)-5-chloroindazole] | 286 | 32
4 | CCN(CC)CCCn1nc(NCCC(C)N2CCCCC2)c2cc(Cl)ccc21 (centres unmarked) [(99), 1-(3-Diethylaminopropyl)-3-(3-piperidinobutylamino)-5-chloroindazole] | 295 | 28
5 | CCN(CC)CCCNc1nn(CCCN2CCCCC2)c2ccc(Cl)cc12 [(100), 1-(3-Piperidinopropyl)-3-(3-diethylaminopropylamino)-5-chloroindazole] | 281 | 30
6 | Clc1ccc2c(c1)c(NCCCN1CCCCC1)nn2CCCN1CCCCC1 [(101), 1-(3-Piperidinopropyl)-3-(3-piperidinopropylamino)-5-chloroindazole] | 211 | 29
7 | Clc1ccc2c(c1)c(NCCCCCCN1CCCCC1)nn2CCCN1CCCCC1 [(102), 1-(3-Piperidinopropyl)-3-(6-piperidinohexylamino)-5-chloroindazole] | 255 | 22
8 | CC(CCNc1nn(CCCN2CCCCC2)c2ccc(Cl)cc12)N1CCCCC1 (centres unmarked) [(103), 1-(3-Piperidinopropyl)-3-(3-piperidinobutylamino)-5-chloroindazole] | 261 | 29
9 | CCN(CC)CCCNc1nn(CCC(C)N2CCCCC2)c2ccc(Cl)cc12 (centres unmarked) [(104), 1-(3-Piperidinobutyl)-3-(3-diethylaminopropylamino)-5-chloroindazole] | 277 | 30
10 | CC(CCn1nc(NCCCN2CCCCC2)c2cc(Cl)ccc21)N1CCCCC1 (centres unmarked) [(105), 1-(3-Piperidinobutyl)-3-(3-piperidinopropylamino)-5-chloroindazole] | 231 | 29
11 | CC(C)CC(CCNc1nn(CCC(C)N2CCCCC2)c2ccc(Cl)cc12)N1CCCCC1 (centres unmarked) [(106), 1-(3-Piperidinobutyl)-3-(3-piperidino-5-methylhexylamino)-5-chloroindazole] | 228 | 22
12 | CC(CCNc1nn(CCC(C)N2CCCCC2)c2ccc(Cl)cc12)N(C)C (centres unmarked) [(107), 1-(3-Piperidinobutyl)-3-(3-dimethylaminobutylamino)-5-chloroindazole] | 231 | 22
13 | CCN(CC)CCCNc1nn(CCC(C)N(C)C)c2ccc(Cl)cc12 (centres unmarked) [(108), 1-(3-Dimethylaminobutyl)-3-(3-diethylaminopropylamino)-5-chloroindazole] | 118 | 30
14 | CC(CCn1nc(NCCCN2CCCCC2)c2cc(Cl)ccc21)N(C)C (centres unmarked) [(109), 1-(3-Dimethylaminobutyl)-3-(3-piperidinopropylamino)-5-chloroindazole] | 387 | 29
15 | CC(CCn1nc(NCCC(C)N2CCCCC2)c2cc(Cl)ccc21)N(C)C (centres unmarked) [(110), 1-(3-Dimethylaminobutyl)-3-(3-piperidinobutylamino)-5-chloroindazole] | 293 | 28
16 | CCN(CC)C(CCNc1nn(CCC(C)N(C)C)c2ccc(Cl)cc12)CC(C)C (centres unmarked) [(111), 1-(3-Dimethylaminobutyl)-3-(3-diethylamino-5-methylhexylamino)-5-chloroindazole] | 314 | 22
17 | Clc1ccc2c(c1)c(NCCCN1CCCCCC1)nn2CCCN1CCCC1 [(112), 1-(3-Pyrrolidinopropyl)-3-(3-homopiperidinopropylamino)-5-chloroindazole] | 325 | 29
18 | CC1CCCCN1CCCNc1nn(CCCN2CCCC2)c2ccc(Cl)cc12 (centres unmarked) [(113), 1-(3-Pyrrolidinopropyl)-3-[3-(2-methylpiperidino)propylamino]-5-chloroindazole] | 221 | 31
19 | CN1CCN(CCCNc2nn(CCCN3CCCC3)c3ccc(Cl)cc23)CC1 [(114), 1-(3-Pyrrolidinopropyl)-3-[3-(4-methylpiperazino)propylamino]-5-chloroindazole] | 299 | 30
20 | CCN(CC)CCCNc1nn(CCCN2CCOCC2)c2ccc(Cl)cc12 [(115), 1-(3-Morpholinopropyl)-3-(3-diethylaminopropylamino)-5-chloroindazole] | 301 | 31

Row | SMILES | LD50 (in vivo) [mg/kg] | inhibition in vivo at 100 mg/kg [1] [%]
21 | CC1CCCC(C)N1CCCNc1nn(CCCN2CCOCC2)c2ccc(Cl)cc12 (centres unmarked) [(116), 1-(3-Morpholinopropyl)-3-[3-(2,6-dimethylpiperidino)propylamino]-5-chloroindazole] | 311 | 33
22 | Clc1ccc2c(c1)c(NCCCN1CCC(Cl)CC1)nn2CCCN1CCOCC1 [(117), 1-(3-Morpholinopropyl)-3-[3-(4-chloropiperidino)propylamino]-5-chloroindazole] | 291 | 30
23 | OC1CCN(CCCNc2nn(CCCN3CCOCC3)c3ccc(Cl)cc23)CC1 [(118), 1-(3-Morpholinopropyl)-3-[3-(4-hydroxypiperidino)propylamino]-5-chloroindazole] | 287 | 31
24 | CCN(CC)CCCNc1nn(CCCN(CC)CC)c2cccc(O)c12 [(119), 1-(3-Diethylaminopropyl)-3-(3-diethylaminopropylamino)-4-hydroxyindazole] | 271 | 29
25 | CCN(CC)CCCNc1nn(CCCN(CC)CC)c2ccc(O)cc12 [(120), 1-(3-Diethylaminopropyl)-3-(3-diethylaminopropylamino)-5-hydroxyindazole] | 269 | 28
26 | CCN(CC)CCCNc1nn(CCCN(CC)CC)c2cc(O)ccc12 [(121), 1-(3-Diethylaminopropyl)-3-(3-diethylaminopropylamino)-6-hydroxyindazole] | 251 | 21
27 | CCN(CC)CCCNc1nn(CCCN(CC)CC)c2c(O)cccc12 [(122), 1-(3-Diethylaminopropyl)-3-(3-diethylaminopropylamino)-7-hydroxyindazole] | 245 | 31
28 | CCN(CC)CCCNc1nn(CCCN(CC)CC)c2ccc(I)cc12 [(123), 1-(3-Diethylaminopropyl)-3-(3-diethylaminopropylamino)-5-iodoindazole] | 291 | 27
29 | CCN(CC)CCCNc1nn(CCCN(CC)CC)c2c(I)cccc12 [(124), 1-(3-Diethylaminopropyl)-3-(3-diethylaminopropylamino)-7-iodoindazole] | 313 | 29
30 | CCN(CC)CCCNc1nn(CCCN(CC)CC)c2c(N)cc(N)cc12 [(125), 1-(3-Diethylaminopropyl)-3-(3-diethylaminopropylamino)-5,7-diaminoindazole] | 320 | 28
31 | CCN(CC)CCCn1nc(NCCCCCCN2CCCCC2)c2cc(O)ccc21 [(127), 1-(3-Diethylaminopropyl)-3-(6-piperidinohexylamino)-5-hydroxyindazole] | 198 | 21
32 | CCCCN(CCCC)CCCNc1nn(CCCN(CC)CC)c2ccc(O)cc12 [(128), 1-(3-Diethylaminopropyl)-3-(3-di-n-butylaminopropylamino)-5-hydroxyindazole] | 170 | 31
33 | CCN(CC)CCCn1nc(NCCC(C)N2CCCCC2)c2cc(O)ccc21 (centres unmarked) [(129), 1-(3-Diethylaminopropyl)-3-(3-piperidinobutylamino)-5-hydroxyindazole] | 240 | 27
34 | CCN(CC)CCCNc1nn(CCCN2CCCCC2)c2ccc(O)cc12 [(130), 1-(3-Piperidinopropyl)-3-(3-diethylaminopropylamino)-5-hydroxyindazole] | 211 | 29
35 | Oc1ccc2c(c1)c(NCCCN1CCCCC1)nn2CCCN1CCCCC1 [(131), 1-(3-Piperidinopropyl)-3-(3-piperidinopropylamino)-5-hydroxyindazole] | 298 | 28
36 | Oc1ccc2c(c1)c(NCCCCCCN1CCCCC1)nn2CCCN1CCCCC1 [(132), 1-(3-Piperidinopropyl)-3-(6-piperidinohexylamino)-5-hydroxyindazole] | 310 | 21
37 | CC(CCNc1nn(CCCN2CCCCC2)c2ccc(O)cc12)N1CCCCC1 (centres unmarked) [(133), 1-(3-Piperidinopropyl)-3-(3-piperidinobutylamino)-5-hydroxyindazole] | 330 | 28
38 | CCN(CC)CCCNc1nn(CCC(C)N2CCCCC2)c2ccc(O)cc12 (centres unmarked) [(134), 1-(3-Piperidinobutyl)-3-(3-diethylaminopropylamino)-5-hydroxyindazole] | 349 | 29
39 | CC(CCn1nc(NCCCN2CCCCC2)c2cc(O)ccc21)N1CCCCC1 (centres unmarked) [(135), 1-(3-Piperidinobutyl)-3-(3-piperidinopropylamino)-5-hydroxyindazole] | 298 | 28
40 | CC(C)CC(CCNc1nn(CCC(C)N2CCCCC2)c2ccc(O)cc12)N1CCCCC1 (centres unmarked) [(136), 1-(3-Piperidinobutyl)-3-(3-piperidino-5-methylhexylamino)-5-hydroxyindazole] | 241 | 21
